Measured values published in ChEMBL document CHEMBL5634090, “Design of phenothiazine-based cationic amphiphilic derivatives incorporating arginine residues: Potential membrane-active broad-spectrum antimicrobials combating pathogenic bacteria in vitro and in vivo” (Eur J Med Chem, 2023).
Values after ≈ are worked out from the molar mass of the structure shown.

Tests used:
Assay type in all cases: functional
Pseudomonas aeruginosa = test: Antibacterial activity against Pseudomonas aeruginosa ATCC 9027 infected in cyclophosphamide immunosuppressed keratitis mouse model assessed as log reduction in number of viable bacterial colonies at 0.3 % administrated tropically
Staphylococcus aureus [1] = test: Antibacterial activity against methicillin resistant Staphylococcus aureus N315 by microbroth dilution assay
Staphylococcus aureus [2] = test: Antibacterial activity against Staphylococcus aureus ATCC 29213 assessed as log reduction in bacterial load at 4 times MIC measured after 2 hrs by time kill assay
Staphylococcus aureus [3] = test: Antibacterial activity against methicillin resistant Staphylococcus aureus NCTC 10442 by microbroth dilution assay
Staphylococcus aureus [4] = test: Antibacterial activity against Staphylococcus aureus ATCC 29213 assessed as log reduction in bacterial load at 8 times MIC measured after 2 hrs by time kill assay
Staphylococcus aureus [5] = test: Antibacterial activity against Staphylococcus aureus ATCC 29213 by microbroth dilution assay
Staphylococcus aureus [6] = test: Antibacterial activity against Staphylococcus aureus ATCC 29213 infected in cyclophosphamide immunosuppressed keratitis mouse model assessed as log reduction in number of viable bacterial colonies at 50 mg/ml administrated tropically

NC[C@H]1O[C@H](O[C@H]2[C@H](O)[C@@H](O[C@H]3O[C@H](CO)[C@@H](O)[C@H](N)[C@H]3O)[C@H](N)C[C@@H]2N)[C@H](N)C[C@@H]1O [TOBRAMYCIN]
log(activity) (Pseudomonas aeruginosa): 4.71

CN[C@H](CC(C)C)C(=O)N[C@H]1C(=O)N[C@@H](CC(N)=O)C(=O)N[C@H]2C(=O)N[C@H]3C(=O)N[C@H](C(=O)N[C@H](C(=O)O)c4cc(O)cc(O)c4-c4cc3ccc4O)[C@H](O)c3ccc(c(Cl)c3)Oc3cc2cc(c3O[C@@H]2O[C@H](CO)[C@@H](O)[C@H](O)[C@H]2O[C@H]2C[C@](C)(N)[C@H](O)[C@H](C)O2)Oc2ccc(cc2Cl)[C@H]1O [VANCOMYCIN]
MIC (Staphylococcus aureus [1]): 1.56 µg/mL (≈ 1.08 µM)
log(activity) (Staphylococcus aureus [2]): 0.03
MIC (Staphylococcus aureus [3]): 1.56 µg/mL (≈ 1.08 µM)
log(activity) (Staphylococcus aureus [4]): 0.15
MIC (Staphylococcus aureus [5]): 0.78 µg/mL (≈ 0.538 µM)
log(activity) (Staphylococcus aureus [6]): 5.2
